Test results reported in patent publication US11845805B2, “Bispecific antibody against CD3 and CD20 in combination therapy for treating diffuse large B-cell lymphoma” (GENMAB A/S, priority 2020, dated 2023).
Like-named read-outs stand apart in the source and are kept apart here.

Tests used:
T cells = assay: T cell viability after 16 hours pre-incubation with CHOP components; assay type: cell-based
[1] = tested on: CD20-expressing Raji-luc tumor cells; details: even in the presence of an excess of IgG1-RTX-FEAR (rituximab variant with inert Fc domain); cited from earlier work
[2] = tested on: primary DLBCL and follicular lymphoma patient biopsies; details: biopsies taken a certain amount of time after administration of an anti-CD20 antibody; cited from earlier work
[3] = T cells pretreated 16 hours with the CHOP component

Compound	T cell viability (T cells; [3])	other results
O=P1(N(CCCl)CCCl)NCCCO1 (stereo not drawn) [cyclophosphamide, 2H-1,3,2-Oxazaphosphorin-2-amine, N,N-bis(2-chloroethyl)tetrahydro-, 2-oxide]	–	T cell viability (T cells): did not impact T cell viability
COc1cccc2c1C(=O)c1c(O)c3c(c(O)c1C2=O)C[C@@](O)(C(=O)CO)C[C@@H]3O[C@H]1C[C@H](N)[C@H](O)[C@H](C)O1 [doxorubicin]	reduction in T cell viability	–
C[C@]12C=CC(=O)C=C1CC[C@@H]1[C@@H]2C(=O)C[C@@]2(C)[C@H]1CC[C@]2(O)C(=O)CO [prednisone, 17,21-dihydroxypregna-1,4-diene-3,11,20-trione]	did not impact T cell viability	–
CC[C@]1(O)C[C@H]2CN(CCc3c([nH]c4ccccc34)[C@@](C(=O)OC)(c3cc4c(cc3OC)N(C=O)[C@H]3[C@@](O)(C(=O)OC)[C@H](OC(C)=O)[C@]5(CC)C=CCN6CC[C@]43[C@@H]65)C2)C1 [vincristine]	did not impact T cell viability	–
epcoritamab: IgG1 bispecific CD3×CD20 antibody; heavy/light chain pairs SEQ ID NOs: 24/25 and 26/27; CAS 2134641-34-0	–	tumor growth in the xenograft model [1]: effectively reduce tumor growth; T-cell-mediated cytotoxicity in patient biopsies [2]: induced T-cell-mediated cytotoxicity
